Legend:
[1] = tested on: P. chrysosporium ligninolytic culture; format: cell-based, Phanerochaete chrysosporium; conditions: initial 200 mg-per-liter, ten days of growth
Description: Decolorization of dyes in cultures were monitored at their absorption maxima at pH 4.5, or using HPLC. A Spherisorb ODS2 C18 column was used for HPLC analysis with a sequence of DMS buffer at pH 4.5 and acetonitrile as solvents (5 min 100% DMS, 15 min 100% acetonitrile, 18 min 100% acetonitrile, 19 min 100% DMS, 20 min 100% DMS, 5 min postran 100% DMS). Peaks were monitored at 260 and 450 nm. Results from spectrophotometric and HPLC methods were compared.
The initial concentration of dye was 200 mg-per-liter. Numbers represent mg-per-liter of dye remaining in the cultures.

ligninase = experiment: Oxidation of dyes by P. chrysosporium ligninase (crude preparation); format: biochemical, Phanerochaete chrysosporium; conditions: crude enzyme, conditions specific for ligninase
Description: The peroxidase assay was carried out using a composition having a final volume of 1.0 ml. The reaction mixture contained 250 μl of 100 mM HEPES buffer (pH 8), 500 μl of 10 mM 2,4-dichlorophenol, 100 μl of 1 mM aminoantipyrine, 50 μl enzyme preparation and 100 μl 50 mM H2 O2. The reaction was initiated by the addition of hydrogen peroxide at 37° C. One unit of peroxidase activity was expressed as the amount of enzyme required for an increase of one absorbance-unit-per-minute at 510 nm. Assays of manganese peroxidase and of ligninase from P. chrysosporium were carried out as previously described by Paszczynski et al in "Manganese peroxidase of Phanerochaete chrysosporium: Purification," Methods Enzymol. 161:264-270, incorporated herein by reference. […] Biophys., 1986, 44:750-765. Preparation and assay of ligninase and manganese peroxidase from these P. chrysosporium cultures were carried out as previously reported by Paszczynski, et al., Methods Enzymol., 1988, 161:264-270. […] Purification," Methods Enzymol. 161:264-270. […] Cycle time was 30 seconds with the last measure after 15 minutes. […] The reaction conditions were the same as for acid yellow 9. No decolorization of the synthesized dyes by ligninase was detected.

[2] = tested on: Phanerochaete chrysosporium; experiment: Substrate removal / decolorization by P. chrysosporium culture; format: cell-based; conditions: for % Decolorization, P. chrysosporium: 14 days
Description: Environ. Microbiol., 1981, 42:290-296), with the addition of 75 mg adenine (6-aminopurine) and 27 mg L-phenylalanine-per-liter. This addition accelerated the growth of the fungus without inhibiting ligninase activity. […] […] Cultures were incubated at 37° C. for 7 to 15 days with shaking (250 rpm). Solid agar media were also employed.

[3] = tested on: S. chromofuscus A11 extracellular peroxidase; experiment: Oxidation of azo dyes by S. chromofuscus A11 crude enzyme preparation; format: biochemical, Streptomyces chromofuscus A11; conditions: pH 8, 37° C., H2O2
Description: Environ. Microbiol., 1988, 54:3057-3063. […] Microbiol. Biotechnol., 34:661-667. Incubation took place at 37° C. with shaking at 250 rpm. The culture supernatant was collected after 48 h incubation, and vacuum-filtered through Whatman no. 1 filter paper. The filtrate was concentrated approximately 40- to 50-fold by ultrafiltration through an Amicon ultrafiltration stirred cell (series no. 8000, Amicon Corp.) with a disc PM-10 filter (diameter, 76 mm). Protein in the concentrated filtrate was then precipitated from solution with 80% ammonium sulfate. The precipitate was collected by centrifugation (15 min, 10,000 rpm). The pellet was resuspended in 10 ml of 20 mM HEPES buffer (pH 8) and dialyzed overnight against the same buffer at 4° C. These preparations were then stored in 1-ml aliquots at -20° C. until used. Before using, the preparation was filtered through a NAP-25 Sephadex G-25 disposable column (Pharmacia) in order to separate a yellowish protein fraction from a pink low-molecular-weight fraction. The yellowish fraction was used as the source of enzyme. […] The reaction was started with the addition of 100 μl of 50 mM H2 O2 and was followed for 1 min at 37° C. Controls were run with no addition of H2 O2 or with the addition of the hemeperoxidase inhibitor KCN (final concentration 25 μM).

Mn(II)-peroxidase = experiment: Oxidation of dyes by P. chrysosporium Mn(II)-peroxidase; format: biochemical, Phanerochaete chrysosporium; conditions: crude enzyme, conditions specific for Mn(II)-peroxidase
Description: The peroxidase assay was carried out using a composition having a final volume of 1.0 ml. The reaction mixture contained 250 μl of 100 mM HEPES buffer (pH 8), 500 μl of 10 mM 2,4-dichlorophenol, 100 μl of 1 mM aminoantipyrine, 50 μl enzyme preparation and 100 μl 50 mM H2 O2. The reaction was initiated by the addition of hydrogen peroxide at 37° C. One unit of peroxidase activity was expressed as the amount of enzyme required for an increase of one absorbance-unit-per-minute at 510 nm. Assays of manganese peroxidase and of ligninase from P. chrysosporium were carried out as previously described by Paszczynski et al in "Manganese peroxidase of Phanerochaete chrysosporium: Purification," Methods Enzymol. 161:264-270, incorporated herein by reference. […] Biophys., 1986, 44:750-765. Preparation and assay of ligninase and manganese peroxidase from these P. chrysosporium cultures were carried out as previously reported by Paszczynski, et al., Methods Enzymol., 1988, 161:264-270. […] Purification," Methods Enzymol. 161:264-270. […] Cycle time was 10 seconds, with the last measure after three minutes of incubation.

[4] = target: T1, horseradish peroxidase type II (Armoracia rusticana, UniProt P00433); experiment: Oxidation of azo dyes by horseradish peroxidase preparation; format: biochemical; conditions: pH 8, 37° C., H2O2
T1 sequence (P00433 31-338): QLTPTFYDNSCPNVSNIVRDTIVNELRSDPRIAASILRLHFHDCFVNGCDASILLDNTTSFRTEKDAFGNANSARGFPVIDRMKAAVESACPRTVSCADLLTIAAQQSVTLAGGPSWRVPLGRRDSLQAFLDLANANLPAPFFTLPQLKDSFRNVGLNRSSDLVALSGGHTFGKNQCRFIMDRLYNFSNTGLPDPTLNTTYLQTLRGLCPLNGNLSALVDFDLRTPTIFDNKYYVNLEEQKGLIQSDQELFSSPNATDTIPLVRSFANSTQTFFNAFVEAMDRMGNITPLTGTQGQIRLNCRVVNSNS
Description: The reaction was started with the addition of 100 μl of 50 mM H2 O2 and was followed for 1 min at 37° C. Controls were run with no addition of H2 O2 or with the addition of the hemeperoxidase inhibitor KCN (final concentration 25 μM).

[5] = beginning concentration 100 ppm
[6] = beginning concentration 150 ppm
[7] = beginning concentration 200 ppm
[8] = beginning concentration 300 ppm

Row | Compound | Dye remaining in the cultures, HPLC [1] [mg-per-liter] | Dye remaining in the cultures, Spectrophotometry [1] [mg-per-liter] | Oxidation rate of azo dyes, P. chrysosporium Ligninase (ligninase) [μmoles per minute per ml] | Concentration of substrate after ten days cultivation with P. chrysosporium [2, 5] [ppm] | Concentration of substrate after ten days cultivation with P. chrysosporium [2, 6] [ppm] | Concentration of substrate after ten days cultivation with P. chrysosporium [2, 7] [ppm] | Concentration of substrate after ten days cultivation with P. chrysosporium [2, 8] [ppm] | % Decolorization, P. chrysosporium ([2]; initial concn 150 ppm) [%] | % Decolorization, P. chrysosporium ([2]; initial concn 300 ppm) [%] | Oxidation rate of azo dyes, S. chromofuscus peroxidase [3] [μmoles per minute per ml] | Oxidation rate of azo dyes, P. chrysosporium Mn-peroxidase (Mn(II)-peroxidase) [μmoles per minute per ml] | Oxidation rate of azo dyes, Horseradish peroxidase [4] [μmoles per minute per ml]
1 | COc1ccccc1NC(=O)C(N=Nc1ccc(-c2nc3ccc(C)c(S(=O)(=O)O)c3s2)cc1S(=O)(=O)O)=C(C)O [compound 29] | 109.39 | 108.92 |  |  |  |  |  |  |  |  |  | 
2 | Nc1ccc2c(O)c(N=Nc3ccc(N=Nc4ccc(N=Nc5cc(S(=O)(=O)O)c6cccc(S(=O)(=O)O)c6c5)c5ccccc45)c4ccc(S(=O)(=O)O)cc34)c(S(=O)(=O)O)cc2c1 [compound 25] | 14.86 | 9.66 |  |  |  |  |  |  |  |  |  | 
3 | Nc1c(N=Nc2ccc(-c3ccc(N=Nc4cc(S(=O)(=O)O)c5ccccc5c4N)cc3)cc2)cc(S(=O)(=O)O)c2ccccc12 [compound 20] | 62.20 | 52.01 |  |  |  |  |  |  |  |  |  | 
4 | O=S(=O)(O)c1ccc(N=Nc2c(O)ccc3ccccc23)c2ccccc12 [compound 23] | 72.43 | 89.27 |  |  |  |  |  |  |  |  |  | 
5 | CCOc1ccc(N=Nc2ccc(C=Cc3ccc(N=Nc4ccc(OCC)cc4)cc3S(=O)(=O)O)c(S(=O)(=O)O)c2)cc1 [compound 27] | 29.42 | 28.33 |  |  |  |  |  |  |  |  |  | 
6 | O=S(=O)(O)c1ccc(N=Nc2ccc(O)cc2)cc1 [compound 6] |  |  | 0.45 | 12.909 | 14.003 | 33.309 | 39.326 | 72 | 18 | 0.42 | 0.02 | 0.47
7 | Cc1ccc(S(=O)(=O)Oc2ccc(N=Nc3ccc(-c4ccc(N=Nc5c(O)ccc6cc(S(=O)(=O)O)cc(S(=O)(=O)O)c56)c(C)c4)cc3C)cc2)cc1 [compound 21] | 103.62 | 102.38 |  |  |  |  |  |  |  |  |  | 
8 | COc1cc(-c2ccc(N=Nc3c(S(=O)(=O)O)cc4cc(S(=O)(=O)O)cc(N)c4c3O)c(OC)c2)ccc1N=Nc1c(S(=O)(=O)O)cc2cc(S(=O)(=O)O)cc(N)c2c1O [compound 22] | 12.28 | 7.64 |  |  |  |  |  |  |  |  |  | 
9 | Nc1ccc2cc(S(=O)(=O)O)cc(O)c2c1N=Nc1ccc(NC(=O)Nc2ccc(N=Nc3c(N)ccc4cc(S(=O)(=O)O)cc(O)c34)c(S(=O)(=O)O)c2)cc1S(=O)(=O)O [compound 26] | 6.98 | 4.33 |  |  |  |  |  |  |  |  |  | 
10 | Cc1ccc(O)c(N=Nc2ccc(S(=O)(=O)O)cc2)c1 [compound 8] |  |  | 0.49 | 16.079 | 28.401 | 29.704 | 135.680 | 27 | 49 | 0.14 | 0.32 | 0.07
11 | Cc1cc(O)c(N=Nc2ccc(S(=O)(=O)O)cc2)cc1C [compound 7] |  |  | 1.35 | 62.893 | 41.044 | 10.200 | 246.044 | 81 | 55 | 0.19 | 0.11 | 0.34
12 | O=S(=O)(O)c1ccc2c(N=Nc3ccccc3)c(O)ccc2c1 [compound 19] |  |  | 2.06 |  | 2.938 |  | 252.592 | 93 | 87 | 0.35 | 0.10 | 0.08

— patent US5618726A, “Biodegradable azo dyes” (priority 1994, dated 1997)
